Experimental data from a melting point compilation (Tetko et al.; mined from patent text by program, amines drawn as free bases though some values may be those of a salt).

Work on `Cc1cc(-c2cc(C(F)F)n3ncc(C(=O)Nc4nc(C)c(S(N)(=O)=O)s4)c3n2)ccc1C(F)(F)F` yielded a melting point of 307 °C.
In the case of `NS(=O)(=O)c1ccc(Br)c(Br)c1`, the melting point is reported as 169 to 171 °C.
`CCCCN1C(=O)c2c(c(C)nn2C)Nc2ncccc21` showed a melting point of 144 to 146 °C.
`COc1ccc2c(c1)CCN(C(C)=O)CC2` showed a melting point of 89 to 90 °C.
Molecule `CCCc1[nH]c2ccc(OCc3ccc4ccccc4n3)cc2c1CC` has a melting point of 91 °C.
With `COc1ccc(-c2cc(=Nc3c(C)cc(C)cc3C)n(C)c3nncn23)cc1OC` the melting point was 125 to 130 °C.
Work on `O=C(Nc1nc(C(F)(F)F)c(Cl)s1)c1ccc(Cl)c([N+](=O)[O-])c1` yielded a melting point of 183 to 184 °C.
`O=C(CCCCCc1ccccc1)NNC(=O)c1ccc(O)cc1` showed a melting point of 155 to 160 °C.
For `COc1ccccc1N1C=C(C(Cl)(Cl)Cl)CN(C(Cl)(Cl)Cl)N1`, the melting point was 93 to 95 °C.
Molecule `CN(Cc1cc2c(=O)c(C(=O)NCc3ccc(Cl)cc3)cn(C)c2o1)CC(O)c1cnccn1` (single isomer, unassigned; (+)) has a melting point of 148 to 151 °C.
In the case of `CCN(CC)c1ccc(C2OC(=O)c3cc(N(C)C)ccc32)c(C)c1` (stereo not given), the melting point is reported as 123 to 125 °C.
With `Cc1cc2cc(OCCC#N)ccc2o1` the melting point was 73 to 76 °C.
For `CCCCCCNC(=O)OCCCCCCCCCCCCNC(=O)OC1CCN(C(=O)O)CC1`, the melting point was 98 to 100 °C.
For `COc1cc2ncnc(N3CCC(O)(CCN4C=CC(C)=NS4(=O)=O)CC3)c2cc1OC`, the melting point was 203 to 204 °C.
Molecule `N#Cc1cnc2c(sc3ccccc32)c1Cl` has a melting point of 305 to 308 °C.
Work on `COC(=O)c1sc(S(C)(=O)=O)cc1O` yielded a melting point of 138 to 140 °C.
Work on `Cc1oc(-c2ccc3ccccc3c2)nc1COc1ccc(CCCCn2cncn2)cc1` yielded a melting point of 134 to 135 °C.
With `CCOc1ccc(C(Cl)=NOS(C)(=O)=O)cc1` the melting point was 93 to 95.5 °C.
`CCOC(=O)C1(Cl)C(=O)N2CCOc3cc(Cl)cc1c32` (stereo not given) showed a melting point of 147 to 148 °C.
`C=C=CS(=O)(=O)c1ncc(Cl)cn1` showed a melting point of 130 °C.
For `CC(=O)NC1CCN(CCCOc2ccc3c4c(c(=O)oc3c2)CCCC4)CC1`, the melting point was 90 to 92 °C.
With `c1cc(Oc2ccc3c(c2)CCCN3)ccn1` the melting point was 117 to 122 °C.
`CCCCCCCCCCCCCCCC(=O)n1cc(F)c(=O)[nH]c1=O` gave a melting point of 98 °C.
Molecule `O=C(C1CCN(Cc2ccccc2)CC1)N1CCc2ccccc2C1` has a melting point of 98 to 100 °C.
Work on `ClC(Cl)=CCOc1cc(Cl)c(OCCCOc2ccc(-c3nn[nH]n3)cc2)c(Cl)c1` yielded a melting point of 159 to 161 °C.
For `CC(=O)c1c(CBr)c(CBr)c(C(C)=O)c2c1C(=O)c1ccccc1C2=O`, the melting point was 225 to 227 °C.
In the case of `CCCNC(=O)N1C2=NC(C)(C)N(CCC)C(=O)N2c2ccccc21`, the melting point is reported as 72 to 74 °C.
For `CCc1c(Cc2cc(OC)c(OC)c(OC)c2)[nH]c(=O)c(CC(C)C)[n+]1[O-]`, the melting point was 126 to 127 °C.
In the case of `CN1CCN(Cc2cc(-c3ccc4c(c3)CCO4)nn(CC3CC3)c2=O)CC1`, the melting point is reported as 128 to 130 °C.
`CC1(C)CC(=O)c2c(S(C)(=O)=O)sc(C(=O)O)c2C1` gave a melting point of 208 °C.
With `O=C(NCCN(CCNC(=O)OCCO)c1nc(Cl)nc(N(CCNC(=O)OCCO)CCNC(=O)OCCO)n1)OCCO` the melting point was 174 °C.
Molecule `O=C(O)c1cccc(C(=O)NC(Cc2c[nH]c3ccccc23)C(=O)CCc2cc(C(F)(F)F)cc(C(F)(F)F)c2)c1` (stereo not given) has a melting point of 113 to 116 °C.
Molecule `Cn1c(-c2ccc(Br)cc2)c(OCCOc2ccc(C=C3SC(=O)NC3=O)cc2)c(=O)c2ccccc21` has a melting point of 151 to 154 °C.
`CC(=O)c1ccc2c(c1)CCC1(CC2)CC1` showed a melting point of 56 to 58 °C.
For `COc1ccccc1N1CCN(NC(=O)c2ccc(Cl)c(S(N)(=O)=O)c2)CC1`, the melting point was 232 to 235 °C.
`CCOC(=O)CCNC(=O)CCCCNC(=O)OC(C)(C)C` showed a melting point of 28 °C.
`CC(C)OC(=O)c1cc2c3ccccc3n(Cc3ccccc3)c2s1` gave a melting point of 88 to 89 °C.
For `CCOCc1nc2c(N)nc3ccccc3c2n1NC1CCCCC1`, the melting point was 143 to 145 °C.
With `Cc1oc2c(C)c(C)c(NCc3ccc(F)cc3)c(C)c2c1-c1ccc(F)cc1` the melting point was 107 to 109 °C.
`O=C(O)c1nn(-c2ccc(Cl)cc2Cl)c2c1SCc1cc(Cl)ccc1-2` gave a melting point of 262 °C.
Work on `CC(=S)O/C=C\n1nnnc1C` yielded a melting point of 135 to 137 °C.
In the case of `CCCC(c1ccc(C(=O)O)cc1)N(CCC)c1nc(-c2ccc(Cl)cc2Cl)c(C)s1` (stereo not given), the melting point is reported as 86 °C.
In the case of `CN(C)CCNC(=O)Cc1ccc(NC(=O)OCc2ccccc2)cc1`, the melting point is reported as 126 to 127 °C.
`CNc1cccc(-c2ccnc3c(C(=O)c4cccs4)cnn23)c1` gave a melting point of 188 to 190 °C.
In the case of `COc1ccc(/C=C/C(=O)Nc2ccc(C(=O)O)cc2)cc1OC`, the melting point is reported as 258 to 259 °C.
`CCOC(=O)CN(C)C(=O)CCN(C(=O)c1ccc(Cl)cc1)c1ccc(OC)cc1` showed a melting point of 104 to 106 °C.
With `CO/C=C1/C(=O)NC(=O)c2ccc(-n3cccc3)cc21` the melting point was 272 to 273 °C.
Work on `C[C@@H](Cn1ccc2ccc3ncccc3c21)NC(=O)OC(C)(C)C` yielded a melting point of 185 °C.
`O=C(Cc1ccccc1Cl)c1ccc(I)cc1` showed a melting point of 105 to 106 °C.
Molecule `CN(C)c1ccc2c(c1)CN1C(=Nc3cccnc3)SC[C@@H]1C2` has a melting point of 138 °C.
